# Data: ChEMBL document CHEMBL3585331, “Recent advances for FLAP inhibitors” (Bioorg Med Chem Lett, 2015)
# Tests used:
# Blood [1] = test: Inhibition of LTB4 production in human whole blood; format: functional, tissue-based
# [2] = target: T1, Arachidonate 5-lipoxygenase-activating protein (Homo sapiens, UniProt P20292); test: Binding affinity to FLAP (unknown origin)
# T1 sequence (P20292 whole entry): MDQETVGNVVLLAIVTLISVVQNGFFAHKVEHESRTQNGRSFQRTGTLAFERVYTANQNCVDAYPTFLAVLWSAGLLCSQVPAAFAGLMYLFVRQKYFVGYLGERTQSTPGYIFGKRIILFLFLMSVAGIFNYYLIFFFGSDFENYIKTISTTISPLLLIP
# Blood [3] = test: Inhibition of A23187-induced LTB4 production in human whole blood pre-incubated for 15 mins before A23187 stimulation for another 15 mins; format: functional, tissue-based
SMILES,IC50 (Blood [1]),IC50 [2],IC50 (Blood [3])
CC(C)(C)Sc1c(CC(C)(C)C(=O)O)n(Cc2ccc(Cl)cc2)c2ccc(OCc3ccc4ccccc4n3)cc12 [QUIFLAPON],500 nM,36 nM,–
CC(C)Cc1ccc(C(C)c2nc3ccccc3n2Cc2ccccc2Cl)cc1 (stereo unspecified),120 nM,–,–
Nc1cnc(-c2ccc(C3CCC3)c(Oc3ncccn3)c2F)cn1,–,–,66 nM
CC(C)(O)CNC(=O)c1ccc(C2(c3ccc(-c4cnc(N)cn4)cc3)CCCO2)cn1 (stereo unspecified),62 nM,–,–
CC(C)C(C)(c1ccc(-c2ccc(C(C)(C)O)nn2)cc1)c1ccc(OCc2ccccn2)cn1 (stereo unspecified),12 nM,–,–
